Results as given in US9315829B2, “Methods for intracellular delivery of nucleic acids” (UNIVERSITE PARIS DESCARTES, priority 2010, dated 2016).

Experiments:
ciliary muscle = assay: Luciferase expression in aqueous humor after transfection of the ciliary muscle with naked pGLuc (Example 5); assay type: in vivo, rat; conditions: for Luciferase (cps) Mean ± sem, level of expression in aqueous humor: pre-treatment 20 mg/ml (10 μl) 45 min before 15 μg pGLuc, day 7, background 99.3 ± 1.5, water 103.5 ± 3.2
Description: FIG. 6: Illustrates the intracellular delivery of naked plasmids to a smooth muscle, the ciliary muscle, and subsequent gene expression in ocular media. Intramuscular pre-injection of triamcinolone acetonide (TA) or anecortave acetate (AA) at 20 mg/ml (10 μl) was carried out 45 min before intramuscular injection of the naked plasmid pGLuc (15 μg in 10 μl in NaCl 0.45%). No transfection or water instead of corticosteroid was used as control. Luminescence is expressed in counts/s (cps). The results are expressed as the mean±sem of 4 to 6 independent experiments.
To reach the ciliary muscle located below the sclera posterior to the limbus, the intra ciliary muscle injection was carried out through a tunneled corneal incision. When the needle had crossed the limbus, it was inserted slightly deeper for a distance of 1 mm and the solutions were injected.
Rats receiving injection of pGLuc in the ciliary muscle were sacrificed on day 7 after treatment. Intraocular fluids were collected on enucleated eyes, clarified by centrifugation and the supernatants stored at −20° C. until tested.
(§1) The luciferase activity was assessed on 10 μl of sample (tissue lysate supernatant or ocular fluid) placed in a white 96 wells plate.
(§2) The detector was a Wallac Victor luminometer (EG&G Wallac, Evry, France) which adds 50 μl of luciferase assay substrate or Gaussia luciferase assay substrate (Promega) to the sample (tissue lysate supernatant or ocular fluid respectively) and integrates the light produced by the sample during 10 s. Results are given for the whole sample in counts per second (cps) or in cps/ml/mg of protein.
Fifteen μg of naked pGLuc in 10 μl in NaCl 0.45% was injected in the ciliary muscle of one eye of anaesthetized rats (the contra lateral eye was used as control).
The plasmid injection was preceded 45 min before by intramuscular injection of 10 μl of triamcinolone acetonide (TA, 20 mg/ml) or anecortave acetate (AA, 20 mg/ml), a synthetic corticosteroid.
No injection and pre-injection with water were performed as controls.

tibialis anterior muscle = assay: Luciferase expression in tibialis anterior muscle after injection of naked pVAX2-Luc (Example 6); assay type: in vivo, mouse; conditions: water control 6.749
Description: Luminescence is expressed in counts/s/ml/mg of protein (cps/ml/mg). The results are expressed as the mean±sem of 3 independent experiments. […] Intramuscular injection in the mouse tibialis anterior muscle was carried out with a 30 G needle on a 300 μl microfine syringe (BD Biosiences). Mouse receiving injection of pVAX2-luc in the tibialis anterior muscle were sacrificed on day 7 after treatment. The tibialis anterior muscle was removed, snap frozen in liquid nitrogen and kept at −80° C. until tested. Tissue samples were then homogenized in 0.3 ml (rat neuroretina and RPE/choroid complex) or 1.0 ml (mouse tibialis anterior muscle) of cell culture lysis reagent (Promega, Charbonniere, France) supplemented with protease inhibitor cocktail (Boehringer, Mannheim, Germany) (one tablet for 50 ml). After centrifugation 10 min at 15 000 g and 4° C., tissue lysate supernatant was collected. The luciferase activity was assessed on 10 μl of sample (tissue lysate supernatant or ocular fluid) placed in a white 96 wells plate. The detector was a Wallac Victor luminometer (EG&G Wallac, Evry, France) which adds 50 μl of luciferase assay substrate or Gaussia luciferase assay substrate (Promega) to the sample (tissue lysate supernatant or ocular fluid respectively) and integrates the light produced by the sample during 10 s. Results are given for the whole sample in counts per second (cps) or in cps/ml/mg of protein. One hundred μg of pVAX1-LacZ or thirty μg of naked pVAX2-Luc in 100 or 30 μl in NaCl 0.45% were, respectively, injected into the tibialis anterior muscle of rats or into the tibialis anterior muscle of mice. In the mice, the plasmid injection was preceded 30 min before by intramuscular injection of 30 μl of triamcinolone acetonide (TA) or dexamethasone (DEX) at 2 or 20 mg/ml, or soluble DEX at 4 mg/ml. Pre-injection with water was performed as control.

RPE-choroid complex = assay: IVT injection of naked pVAX2-Luc followed by gas injection and/or ET, luciferase in RPE-choroid complex (Example 1); assay type: in vivo, rat; conditions: IVT pre-injection 30 min before plasmid, Indocyanin Green 2.5 mg/ml, Polysorbate 80 0.2 mg/ml
Description: (§3) FIG. 2: Illustrates the intracellular delivery of naked plasmids and gene expression in the neuroretina (FIG. 2A) and the RPE-choroid complex (FIG. 2B) of IVT pre-injection of 10 μl of the corticosteroid pharmaceutical specialty KENACORT® at 20 mg/ml (triamcinolone acetonide (TA) as active agent and polysorbate 80 as excipient), Indocyanine Green at 2.5 mg/ml or Polysorbate 80 at 0.2 mg/ml 30 min before IVT injection of the plasmid pVAX2-Luc (30 μg in 10 μl in NaCl 0.45%), followed by gas injection or ET application [8×(80V; 20 ms; 5 Hz)] or combination of both immediately upon IVT injection of the plasmid. Luminescence is expressed in counts/s (cps). The results are expressed as the mean±sem of 4 independent experiments.
Rats receiving intravitreal injection of pVAX2-luc were sacrificed on day 7 after treatment. The eyes were enucleated and dissected under an operating microscope, the neuroretina and RPE/choroid complex removed, snap frozen in liquid nitrogen and kept at −80° C. until tested.
Tissue samples were then homogenized in 0.3 ml (rat neuroretina and RPE/choroid complex) or 1.0 ml (mouse tibialis anterior muscle) of cell culture lysis reagent (Promega, Charbonniere, France) supplemented with protease inhibitor cocktail (Boehringer, Mannheim, Germany) (one tablet for 50 ml). After centrifugation 10 min at 15 000 g and 4° C., tissue lysate supernatant was collected.
as §1, §2
The effect of various chemical agents on the RPE-choroid complex gases injection or electrotransfer-induced intracellular delivery of the naked plasmid pVAX2-Luc and gene expression of the luciferase in neuroretina was evaluated.
Thirty μg of naked pVAX2-Luc in 10 μl in NaCl 0.45% was injected intravitreously in one eye of anaesthetized rats (the contra lateral eye was used as control) immediately followed by gas injection (C2F6 or SF6) or ET application [8×(80V; 20 ms; 5 Hz)] or combination of both. […]
(§4) 7 days after the treatment the animals were sacrificed, the eyes were enucleated and dissected under an optical microscope to isolate the neuroretina and the RPE-choroid complex and the luminescence of the luciferase was measured.

neuroretina = assay: IVT injection of naked pVAX2-Luc followed by gas injection and/or ET, luciferase in neuroretina (Example 1); assay type: in vivo, rat; conditions: IVT pre-injection 30 min before plasmid, Indocyanin Green 2.5 mg/ml, Polysorbate 80 0.2 mg/ml
Description: as §3, with “experiments. […]” for “experiments.”
The luciferase activity was assessed on 10 μl of sample (tissue lysate supernatant or ocular fluid) placed in a white 96 wells plate. […]
The effect of various chemical agents on the RPE-choroid complex gases injection or electrotransfer-induced intracellular delivery of the naked plasmid pVAX2-Luc and gene expression of the luciferase in neuroretina was evaluated. […]
as §4

[1] = pre-treatment 2 mg/ml (30 μl) 30 min before plasmid
[2] = pre-treatment 20 mg/ml (30 μl) 30 min before plasmid

Compound	level of expression of Luciferase in the aqueous humor compared to naked plasmid alone (ciliary muscle; pre-injection 20 mg/ml (10 μl) 45 min before 15 μg pGLuc)	Luciferase (cps) Mean ± sem, level of expression in aqueous humor (ciliary muscle)	Luciferase (cps) means (10^6) (tibialis anterior muscle; [1])	Luciferase (cps) means (10^6) (tibialis anterior muscle; [2])	improvement of the efficacy of gases injection, by contrast with KENACORT (RPE-choroid complex)	improvement of the efficiency of ET (RPE-choroid complex)	efficiency in improving transfection, by contrast with KENACORT (neuroretina)
CC(=O)OCC(=O)[C@@]1(O)CC[C@H]2[C@@H]3CCC4=CC(=O)CC[C@]4(C)C3=CC[C@@]21C [AA, anecortave acetate]	dramatically improve	122.5 ± 7.2 cps	–	–	–	–	–
C[C@@H]1C[C@H]2[C@@H]3CCC4=CC(=O)C=C[C@]4(C)[C@@]3(F)[C@@H](O)C[C@]2(C)[C@@]1(O)C(=O)CO [DEX, dexamethasone]	–	–	8.526 10^6 cps	30.13 10^6 cps	–	–	–
CC1(C)C(/C=C/C=C/C=C/C=C2\N(CCCCS(=O)(=O)O)c3ccc4ccccc4c3C2(C)C)=[N+](CCCCS(=O)(=O)[O-])c2ccc3ccccc3c21 [Indocyanin Green, indocyanine green]	–	–	–	–	less efficient	improved, in a certain extent	less efficient
CC1(C)O[C@@H]2C[C@H]3[C@@H]4CCC5=CC(=O)C=C[C@]5(C)[C@@]4(F)[C@@H](O)C[C@]3(C)[C@]2(C(=O)CO)O1 [TA, triamcinolone acetonide]	–	122.3 ± 6.8 cps	6.849 10^6 cps	6.431 10^6 cps	–	–	–
polysorbate 80	–	–	–	–	less efficient	improved, in a certain extent	less efficient
